system: L-687,414-induced hyperlocomotion; assay: L-687,414-induced hyperlocomotion; format: in vivo, mouse; settings: Mus musculus; Dose ip 30 mg/kg, mice, 50 mg/kg s.c. L-687,414
Procedure: The described compounds of formula I reduce L-687,414-induced hyperlocomotion. This was assessed by using a computerized Digiscan 16 Animal Activity Monitoring System (Omnitech Electronics, Columbus, Ohio) to quantify locomotor activity. Animals were kept under a 12 h light/dark cycle and experiments were performed during the light period. Each activity monitoring chamber consisted of a Plexiglas box (41×41×28 cm; W×L×H) with sawdust bedding on the floor surrounded by invisible horizontal and vertical infrared sensor beams. The test boxes were divided by a Plexiglas cross providing each mouse with 20×20 cm of moving space. Cages were connected to a Digiscan Analyzer linked to a computer that constantly collected the beam status information. Records of photocell beam interruptions for individual animals were taken every 5 min over the duration of the experimental session and the sum of the first 6 periods was used as the final parameter. At least 8 mice were used in each treatment group. Compounds were administered either p.o. 15 min before a s.c. injection of 50 mg/kg of L-687,414, or i.p. at the same time as a s.c. injection of 50 mg/kg of L-687,414. Mice were then transferred from their home cage to the recording chambers for a 15-min habituation phase allowing free exploration of the new environment. Horizontal activity was then recorded for a 30-min time period. The % inhibition of L-687,414-induced hyperlocomotion was calculated according to the equation:
((Veh+L-687,414 horizontal activity−drug+L-687,414 horizontal activity)/Veh+L-687,414 horizontal activity)×100
ID50 values, defined as doses of each compound producing 50% inhibition of L-687,414-induced hyperlocomotion, were calculated by linear regression analysis of a dose-response data using an Excel-based computer-fitting program.
As data was not presupposed to be normally distributed, groups treated with test compounds were statistically compared with the control (vehicle-treated) group using one-tailed Mann Whitney U tests. In statistics, the Mann-Whitney U test (also called the Mann-Whitney-Wilcoxon (MWW) or Wilcoxon rank-sum test) is a non-parametric statistical hypothesis test for assessing whether one of two samples of independent observations tends to have larger values than the other. It is one of the most well-known non-parametric significance tests. […] P values given in table 1 are one-tailed since only decreases in locomotion were expected and tested for (Mann, H. B., Whitney, D. R. (1947), “On a Test of Whether one of Two Random Variables is Stochastically Larger than the Other”, Annals of Mathematical Statistics, 18 (1), 50-60).

First: Cc1ncc(-c2cc3c(cn2)C(C)(C)C(=O)N3c2ccn(C)n2)cn1 [Example 16, 3,3-Dimethyl-1-(1-methyl-1H-pyrazol-3-yl)-6-(2-methylpyrimidin-5-yl)-1H-pyrrolo[3,2-c]pyridin-2(3H)-one]
Second: Cc1ncc(-c2ccc3c(c2)N(c2ncn(C)n2)C(=O)C3(C)C)cn1 [Example 82, 3,3-dimethyl-1-(1-methyl-1H-1,2,4-triazol-3-yl)-6-(2-methylpyrimidin-5-yl)indolin-2-one]
The inhibition in vivo at 30 mg/kg of the first is lower: 78.3% for the first, 89.6% for the second.

Compared with `Cc1cc(N2C(=O)C(C)(C)c3ccc(-n4cnc(C)c4)cc32)ccn1` [Example 22, 3,3-Dimethyl-6-(4-methylimidazol-1-yl)-1-(2-methyl-4-pyridyl)indolin-2-one], `Cc1ccc(N2C(=O)C(C)(C)c3ccc(-c4nnc(C)o4)cc32)cn1` [Example 34, 3,3-Dimethyl-6-(5-methyl-1,3,4-oxadiazol-2-yl)-1-(6-methyl-3-pyridyl)indolin-2-one] is lower in inhibition in vivo at 30 mg/kg: 63.8% for the first, 59.7% for the second.

Compared with `Cc1ncc(-c2ccc3c(c2)N(c2ccn(C)n2)C(=O)C3(C)C)o1` [Example 49, 3,3-Dimethyl-6-(2-methyloxazol-5-yl)-1-(1-methylpyrazol-3-yl)indolin-2-one], `Cc1ncc(-c2ccc3c(c2)N(c2nc(C)n(C)n2)C(=O)C3(C)C)cn1` [Example 78, 1-(1,5-dimethyl-1H-1,2,4-triazol-3-yl)-3,3-dimethyl-6-(2-methylpyrimidin-5-yl)indolin-2-one] is higher in inhibition in vivo at 30 mg/kg: 47.1% for the first, 89.9% for the second.

target: T1, mouse ENT-1 transporter (Mus musculus, UniProt Q9JIM1); assay: Measure of adenosine transport activity (ENT1 adenosine uptake inhibition); format: cell-based; settings: stable cells expressing mouse ENT-1, [2,8-3H]-adenosine 6 nM, 20 min
T1 construct: expressed in transfected cells
T1 sequence (Q9JIM1 1-460): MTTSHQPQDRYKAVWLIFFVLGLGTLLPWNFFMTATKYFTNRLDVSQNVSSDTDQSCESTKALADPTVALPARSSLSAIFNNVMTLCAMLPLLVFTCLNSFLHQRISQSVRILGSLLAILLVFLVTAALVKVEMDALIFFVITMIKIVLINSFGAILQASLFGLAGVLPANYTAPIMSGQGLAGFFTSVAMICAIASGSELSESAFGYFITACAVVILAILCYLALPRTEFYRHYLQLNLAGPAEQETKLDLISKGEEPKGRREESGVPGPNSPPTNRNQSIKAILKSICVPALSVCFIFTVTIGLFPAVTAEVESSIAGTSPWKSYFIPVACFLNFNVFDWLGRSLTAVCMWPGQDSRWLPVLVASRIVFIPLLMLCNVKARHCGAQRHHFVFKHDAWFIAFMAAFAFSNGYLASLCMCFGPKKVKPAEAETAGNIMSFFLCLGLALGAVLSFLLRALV
Procedure: To measure adenosine transport activity of ENT-1 mammalian cells, stable cells expressing the mouse ENT-1 transporter were plated on day 1 in 96-well culture plates at the density of 60,000 cells/well, in complete DMEM/F12 medium supplemented with glutamax, 10% FBS and 10 μg/ml puromycin. On day 2, the medium was aspirated and the cells were washed twice with uptake buffer (10 mM Hepes-Tris, pH 7.4 containing 150 mM NaCl, 1 mM CaCl2), 2.5 mM KCl, 2.5 mM MgSO4, 10 mM D-glucose) (UB). For inhibition experiments, cells were then incubated at RT with various concentrations of compounds with 1% DMSO final. Non-specific uptake was defined in the presence of 10 μM S-(4-Nitrobenzyl)-6-thioinosine (NBTI, Sigma Cat #N2255).
The plates were then incubated for 20 min with gentle shaking and the reaction was stopped by aspiration of the mixture and washing (three times) with ice-cold UB. The cells were lysed by the addition of scintillation liquid, shaken 3 hours and the radioactivity in the cells was estimated using a microplates scintillation counter (TopCount NXT, Packard).

`Cc1ncc(-c2ccc3c(c2)N(c2nccc(Cl)n2)C(=O)C3(C)C)cn1` [Example 128, 1-(4-chloropyrimidin-2-yl)-3,3-dimethyl-6-(2-methylpyrimidin-5-yl)indolin-2-one] and `COCc1ccc(N2C(=O)C(C)(C)c3ccc(-c4cnc(C)nc4)cc32)cn1` [Example 129, 1-(6-(methoxymethyl)pyridin-3-yl)-3,3-dimethyl-6-(2-methylpyrimidin-5-yl)indolin-2-one] are within 1.5-fold of each other in IC50: 851 nM for the first, 887 nM for the second.

Compared with `Cc1ncc(-c2ccc3c(c2)N(c2cc(C4CC4)cnn2)C(=O)C3(C)C)cn1` [Example 130, 1-(5-cyclopropylpyridazin-3-yl)-3,3-dimethyl-6-(2-methylpyrimidin-5-yl)indolin-2-one], `Cc1ncc(-c2ccc3c(c2)N(c2ccc(C4CC4)nn2)C(=O)C3(C)C)cn1` [Example 134, 1-(6-cyclopropylpyridazin-3-yl)-3,3-dimethyl-6-(2-methylpyrimidin-5-yl)indolin-2-one] is 66-fold lower in IC50: 2370 nM for the first, 36 nM for the second.

Going from `Cc1cnc(-c2ccc3c(c2)N(c2cncc(C)n2)C(=O)C3(C)C)cn1` [Example 132, 3,3-dimethyl-6-(5-methylpyrazin-2-yl)-1-(6-methylpyrazin-2-yl)indolin-2-one] to `Cc1cnc(-c2ccc3c(c2)N(c2ccc(C)nn2)C(=O)C3(C)C)cn1` [Example 137, 3,3-dimethyl-6-(5-methylpyrazin-2-yl)-1-(6-methylpyridazin-3-yl)indolin-2-one], the IC50 rises from 2450 nM to 4070 nM (1.7-fold).

`Cc1cnc(-c2ccc3c(c2)N(c2cnc(C)nc2)C(=O)C3(C)C)cn1` [Example 133, 3,3-dimethyl-6-(5-methylpyrazin-2-yl)-1-(2-methylpyrimidin-5-yl)indolin-2-one] and `Cc1cnc(-c2ccc3c(c2)N(c2ccn(C)n2)C(=O)C3(C)C)cn1` [Example 138, 3,3-dimethyl-1-(1-methyl-1H-pyrazol-3-yl)-6-(5-methylpyrazin-2-yl)indolin-2-one] are within 1.5-fold of each other in IC50: 4780 nM for the first, 5790 nM for the second.

First: Cc1cccc(-c2ccc3c(c2)N(c2cncc(C)n2)C(=O)C3(C)C)n1 [Example 135, 3,3-dimethyl-1-(6-methylpyrazin-2-yl)-6-(6-methyl-2-pyridyl)indolin-2-one]
Second: Cc1cncc(N2C(=O)C(C)(C)c3ccc(-c4ccnc(C)n4)cc32)n1 [Example 154, 3,3-dimethyl-1-(6-methylpyrazin-2-yl)-6-(2-methylpyrimidin-4-yl)indolin-2-one]
The IC50 of the first is 2-fold lower: 2280 nM for the first, 4470 nM for the second. The first is the more potent here.

First: Cc1ncc(-c2ccc3c(c2)N(c2cncc(F)c2)C(=O)C3(C)C)cn1 [Example 142, 1-(5-fluoropyridin-3-yl)-3,3-dimethyl-6-(2-methylpyrimidin-5-yl)indolin-2-one]
Second: Cc1ncc(-c2ccc3c(c2)N(c2cncc(C#N)c2)C(=O)C3(C)C)cn1 [Example 143, 5-(3,3-dimethyl-6-(2-methylpyrimidin-5-yl)-2-oxoindolin-1-yl)nicotinonitrile]
The IC50 of the first is 11-fold higher: 765 nM for the first, 70 nM for the second.

Compared with `Cc1cc(-c2ccc3c(c2)N(c2cncc(C)n2)C(=O)C3(C)C)ccn1` [Example 144, 3,3-dimethyl-1-(6-methylpyrazin-2-yl)-6-(2-methyl-4-pyridyl)indolin-2-one], `Cc1cnc(N2C(=O)C(C)(C)c3ccc(-c4ccnc(C)c4)cc32)cn1` [Example 147, 3,3-dimethyl-1-(5-methylpyrazin-2-yl)-6-(2-methyl-4-pyridyl)indolin-2-one] is 2.6-fold higher in IC50: 3510 nM for the first, 9000 nM for the second.

Compared with `Cc1cncc(-c2ccc3c(c2)N(c2cncc(C)n2)C(=O)C3(C)C)c1` [Example 145, 3,3-dimethyl-1-(6-methylpyrazin-2-yl)-6-(5-methyl-3-pyridyl)indolin-2-one], `Cc1cncc(N2C(=O)C(C)(C)c3ccc(-c4cncc(F)c4)cc32)n1` [Example 146, 6-(5-fluoro-3-pyridyl)-3,3-dimethyl-1-(6-methylpyrazin-2-yl)indolin-2-one] is 6.3-fold higher in IC50: 337 nM for the first, 2130 nM for the second. The first is the more potent here.

Compared with `Cc1ccc(-c2ccc3c(c2)N(c2cnc(C)cn2)C(=O)C3(C)C)cn1` [Example 148, 3,3-dimethyl-1-(5-methylpyrazin-2-yl)-6-(6-methyl-3-pyridyl)indolin-2-one], `Cc1cnc(N2C(=O)C(C)(C)c3ccc(-c4cnc(C)c(F)c4)cc32)cn1` [Example 151, 6-(5-fluoro-6-methyl-3-pyridyl)-3,3-dimethyl-1-(5-methylpyrazin-2-yl)indolin-2-one] is 11-fold lower in IC50: 402 nM for the first, 37 nM for the second. The second is the more potent here.

Compared with `Cc1cncc(-c2ccc3c(c2)N(c2cnc(C)cn2)C(=O)C3(C)C)c1` [Example 149, 3,3-dimethyl-1-(5-methylpyrazin-2-yl)-6-(5-methyl-3-pyridyl)indolin-2-one], `Cc1cnc(N2C(=O)C(C)(C)c3ccc(-c4cncc(F)c4)cc32)cn1` [Example 150, 6-(5-fluoro-3-pyridyl)-3,3-dimethyl-1-(5-methylpyrazin-2-yl)indolin-2-one] is 7.1-fold higher in IC50: 207 nM for the first, 1480 nM for the second. The first is the more potent here.

`Cc1ncc(-c2ccc3c(c2)N(c2cncc(C(F)(F)F)c2)C(=O)C3(C)C)cn1` [Example 152, 3,3-dimethyl-6-(2-methylpyrimidin-5-yl)-1-(5-(trifluoromethyl)pyridin-3-yl)indolin-2-one] and `Cc1ncc(-c2ccc3c(c2)N(c2cncc(CO)c2)C(=O)C3(C)C)cn1` [Example 153, 1-(5-(hydroxymethyl)pyridin-3-yl)-3,3-dimethyl-6-(2-methylpyrimidin-5-yl)indolin-2-one] are within 1.5-fold of each other in IC50: 317 nM for the first, 291 nM for the second.

For `CCc1cncc(N2C(=O)C(C)(C)c3ccc(-c4cnc(C)nc4)cc32)c1` [Example 156, 1-(5-ethylpyridin-3-yl)-3,3-dimethyl-6-(2-methylpyrimidin-5-yl)indolin-2-one], the IC50 was 300 nM.
